The conditions of data set [1]: cited from earlier work.
The next data set concerns fresh whole blood. In words: Whole blood thromboelastometry (ROTEM), clotting initiated with dilute thromboplastin. It counts as biochemical, human. The method, then: Thromboelastography was carried out using the ROTEM® four channel system (Pentapharm, Munich, Germany) using the supplied software package. Fresh, non-anticoagulated whole blood was collected via atraumatic venipuncture using a two-syringe technique. The initial 3 ml of blood was discarded and the blood sample to be used was then drawn into a 3 ml plain plastic syringe. The blood was immediately transferred to the supplied disposable plastic cups (280 μL per cup) and thoroughly mixed with 20 μL buffer (TBS: 50 mM Tris-HCl pH 7.4, 150 mM NaCl, 0.02% NaN3) or additives in TBS. Each fresh whole blood sample was divided into 4 cups containing the following: TBS only (control), polyP75, anticoagulant drug only, or both polyP75 and anticoagulant drug. Clotting was then initiated immediately via addition of 20 μL of tissue factor containing clotting reagent (INNOVIN® diluted in TBS). Thromboelastography measurement was initiated within 120 seconds of blood drawing for all samples. The final concentrations in the reaction were 87.5% whole blood, INNOVIN® diluted 1:17,000, 0 or 100 μM polyP, 0 or added anticoagulant drug (0.1 U/mL unfractionated heparin or 2.7 μg/mL enoxaparin or 1 μg/mL argatroban, or 0.2 μg/mL rivaroxaban). The measurements were continued for 2 hours and the clot time (CT), clot formation time (CFT), alpha angle (α angle), and maximum clot firmness (MCF) were recorded as supplied by the ROTEM® software. Each anticoagulant drug was added in vitro to whole blood from 5 different individuals.
(§1) Statistical analyses were performed using SigmaStat statistical software version 2.03 (SPSS, Inc). In all cases, two-tailed t-tests were conducted at the 0.05 level of significance. Clot times obtained using the Dilute PT Test with and without added polyP in plasma-based experiments were compared using unpaired t-tests. Results for each variable obtained from the ROTEM® experiments (CT, CFT, a angle, MCF) were compared separately. For each group of anticoagulants, parameters obtained for control blood samples were compared to those for blood+polyP, blood+anticoagulant, and blood+anticoagulant+polyP. The latter two samples were also directly compared. To account for inter-individual variation, thromboelstography parameters were compared using paired t-tests.

A further data set concerns the target T1, fibrinogen (Homo sapiens, UniProt P02671+P02675+P02679).
T1 sequence (P02671 20-644 isoform P02671-2 limits assumed): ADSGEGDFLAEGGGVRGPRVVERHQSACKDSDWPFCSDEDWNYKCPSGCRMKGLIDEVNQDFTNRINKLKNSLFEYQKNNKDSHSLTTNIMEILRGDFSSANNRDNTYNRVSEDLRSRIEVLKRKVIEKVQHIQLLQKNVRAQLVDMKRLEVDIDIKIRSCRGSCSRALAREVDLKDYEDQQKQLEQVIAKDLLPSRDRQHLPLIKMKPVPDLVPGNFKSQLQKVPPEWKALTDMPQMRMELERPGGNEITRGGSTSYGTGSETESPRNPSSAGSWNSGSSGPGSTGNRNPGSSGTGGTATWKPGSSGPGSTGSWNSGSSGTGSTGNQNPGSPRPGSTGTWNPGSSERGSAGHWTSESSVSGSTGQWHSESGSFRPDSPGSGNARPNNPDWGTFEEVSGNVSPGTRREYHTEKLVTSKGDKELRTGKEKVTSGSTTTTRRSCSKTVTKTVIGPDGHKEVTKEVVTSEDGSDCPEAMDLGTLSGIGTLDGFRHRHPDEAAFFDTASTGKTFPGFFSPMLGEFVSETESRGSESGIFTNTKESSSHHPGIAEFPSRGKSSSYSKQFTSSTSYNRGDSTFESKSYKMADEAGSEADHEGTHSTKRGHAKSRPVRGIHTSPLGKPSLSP
T1 sequence (P02675 31-491): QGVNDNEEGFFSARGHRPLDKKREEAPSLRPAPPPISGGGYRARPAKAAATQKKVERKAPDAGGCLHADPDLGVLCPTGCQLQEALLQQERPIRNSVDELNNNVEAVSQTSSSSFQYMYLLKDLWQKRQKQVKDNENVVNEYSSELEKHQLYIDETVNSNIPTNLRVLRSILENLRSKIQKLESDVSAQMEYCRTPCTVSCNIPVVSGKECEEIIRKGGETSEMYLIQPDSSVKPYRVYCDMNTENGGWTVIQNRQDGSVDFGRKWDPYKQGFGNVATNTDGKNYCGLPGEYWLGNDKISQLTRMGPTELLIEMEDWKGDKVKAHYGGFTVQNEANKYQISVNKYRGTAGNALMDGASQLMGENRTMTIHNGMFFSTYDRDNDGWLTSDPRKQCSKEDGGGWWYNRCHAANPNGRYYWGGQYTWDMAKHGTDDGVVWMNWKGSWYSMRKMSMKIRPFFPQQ
T1 sequence (P02679 27-437 isoform P02679-2 limits assumed): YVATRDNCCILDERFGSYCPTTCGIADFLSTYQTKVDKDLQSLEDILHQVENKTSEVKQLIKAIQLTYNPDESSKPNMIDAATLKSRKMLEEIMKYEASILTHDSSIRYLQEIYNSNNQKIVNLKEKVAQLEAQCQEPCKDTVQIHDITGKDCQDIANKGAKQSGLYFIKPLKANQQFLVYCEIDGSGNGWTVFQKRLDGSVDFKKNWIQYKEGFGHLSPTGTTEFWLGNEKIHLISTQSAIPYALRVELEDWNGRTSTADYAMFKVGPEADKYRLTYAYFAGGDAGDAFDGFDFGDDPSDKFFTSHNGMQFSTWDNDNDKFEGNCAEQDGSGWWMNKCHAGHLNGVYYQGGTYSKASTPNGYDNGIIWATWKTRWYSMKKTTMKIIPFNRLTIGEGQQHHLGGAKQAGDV
In words: Clot structure of thrombin cleaved fibrinogen. The data set is classed as biochemical.

Another data set addresses factor V (Homo sapiens, UniProt P12259). In words: Studies with purified proteins: activation of factor V. The data set is classed as biochemical.
The target of the next data set is thrombin (Homo sapiens, UniProt P00734). In words: Studies with purified proteins: inactivation of thrombin by antithrombin. It counts as biochemical.
Data set [2] has as its system plasma from patients receiving COUMADIN®. In words: Dilute PT Test, plasma clot time, patients receiving COUMADIN
The data set is classed as biochemical, human. The note with it: 7 patients, INR 1.7 to 4.8; polyP75 added in vitro. The method, then: (§2) The following describes the use of the Dilute PT Test to evaluate the effectiveness of polyP in treat hemophilia and reversing the effects of anticoagulant drugs. Anticoagulant drugs were added to pooled normal plasma in vitro at concentrations of up 1 U/mL for unfractionated heparin, 100 μg/mL for enoxaparin, 3 μg/mL for argatroban, and 1 μg/mL for rivaroxaban. Plasma from a patient deficient in FVIII was evaluated with and without the addition of up to 0.5 μg/mL FVIII or 20 nM FVIIa. Plasma from a patient deficient in FIX was evaluated with and without the addition of up to 4 μg/mL FIX or 20 nM FVIIa. INR values for samples from patients receiving COUMADIN® ranged from 1.7 to 4.8.
Plasma clots were formed in 96-well medium binding polystyrene microplates (Corning Inc., Corning, N.Y.). Plasma (80 μL) was added to the well and clotting was initiated by addition of 160 uL of clotting reagent. […]
Clotting was evaluated by monitoring the change in turbidity (A405) for 1 hour at room temperature using Softmax software and a Spectramax microplate reader (Molecular Devices Corporation, Sunnyvale, Calif.). […]

Data set [3] deals with plasma from patients with hemophilia B (FIX<1%). In words: Dilute PT Test, plasma clot time, hemophilia B patients. It counts as biochemical, human. The method, then: as §2
(§3) Plasma clots were formed in 96-well medium binding polystyrene microplates (Corning Inc., Corning, N.Y.). Plasma (80 μL) was added to the well and clotting was initiated by addition of 160 uL of clotting reagent. The clotting reagent consisted of RecombiPlasTin (as a source of tissue factor) diluted 200 fold (for normal and anticoagulated plasmas) or 8000 fold (for hemophilia plasmas) into buffer containing 100 μM phospholipid vesicles (20% phosphatidylserine and 80% phosphatidylcholine made by sonication), 12.5 mM CaCl2, 25 mM Tris HCl pH 7.4, 0.1% bovine serum albumin, and 150 mM NaCl. Clotting reagent was divided into reagent without added polyP and reagent with added 100 μM polyP75.
(§4) Clotting was evaluated by monitoring the change in turbidity (A405) for 1 hour at room temperature using Softmax software and a Spectramax microplate reader (Molecular Devices Corporation, Sunnyvale, Calif.). […] All assays were repeated 5 times.
as §1

Another data set has as its system pooled normal plasma. Nature of the data set: Dilute PT Test, plasma clot time, anticoagulants added in vitro. The data set is classed as biochemical, human. The method, then:
as §2, §3, §4, §1

Data set [4] relates to plasma from patients with hemophilia A (FVIII<1%). In words: Dilute PT Test, plasma clot time, hemophilia A patients. It counts as biochemical, human. The method, then:
as §2, §3, §4, §1

The mark [5] stands for this setting: +Anticoagulant alone (0.1 U/mL unfractionated heparin, 2.7 μg/mL enoxaparin, 1 μg/mL argatroban or 0.2 μg/mL rivaroxaban).
Where [6] appears, read: +100 μM polyP, no anticoagulant, blood samples of the argatroban series.
[7] abbreviates: +100 μM polyP, no anticoagulant, blood samples of the enoxaparin series.
[8] abbreviates: +100 μM polyP, no anticoagulant, blood samples of the rivaroxaban series.
The mark [9] stands for this setting: +100 μM polyP, no anticoagulant, blood samples of the unfractionated heparin series.
Setting [10] is: +Anticoagulant + polyP: 0.2 μg/mL rivaroxaban + 100 μM polyP.
[11] abbreviates: +Anticoagulant + polyP: 1 μg/mL argatroban + 100 μM polyP.
Setting [12] is: +Anticoagulant + polyP: 2.7 μg/mL enoxaparin + 100 μM polyP.
[13] abbreviates: +Anticoagulant + polyP: 0.1 U/mL unfractionated heparin + 100 μM polyP.

The values that follow come from US9241958B2, “Anticoagulant antagonist and hemophilia procoagulant” (The Board of Trustees of the University of Illinois, priority 2007, dated 2016).

factor V, sequence (P12259 29-2224): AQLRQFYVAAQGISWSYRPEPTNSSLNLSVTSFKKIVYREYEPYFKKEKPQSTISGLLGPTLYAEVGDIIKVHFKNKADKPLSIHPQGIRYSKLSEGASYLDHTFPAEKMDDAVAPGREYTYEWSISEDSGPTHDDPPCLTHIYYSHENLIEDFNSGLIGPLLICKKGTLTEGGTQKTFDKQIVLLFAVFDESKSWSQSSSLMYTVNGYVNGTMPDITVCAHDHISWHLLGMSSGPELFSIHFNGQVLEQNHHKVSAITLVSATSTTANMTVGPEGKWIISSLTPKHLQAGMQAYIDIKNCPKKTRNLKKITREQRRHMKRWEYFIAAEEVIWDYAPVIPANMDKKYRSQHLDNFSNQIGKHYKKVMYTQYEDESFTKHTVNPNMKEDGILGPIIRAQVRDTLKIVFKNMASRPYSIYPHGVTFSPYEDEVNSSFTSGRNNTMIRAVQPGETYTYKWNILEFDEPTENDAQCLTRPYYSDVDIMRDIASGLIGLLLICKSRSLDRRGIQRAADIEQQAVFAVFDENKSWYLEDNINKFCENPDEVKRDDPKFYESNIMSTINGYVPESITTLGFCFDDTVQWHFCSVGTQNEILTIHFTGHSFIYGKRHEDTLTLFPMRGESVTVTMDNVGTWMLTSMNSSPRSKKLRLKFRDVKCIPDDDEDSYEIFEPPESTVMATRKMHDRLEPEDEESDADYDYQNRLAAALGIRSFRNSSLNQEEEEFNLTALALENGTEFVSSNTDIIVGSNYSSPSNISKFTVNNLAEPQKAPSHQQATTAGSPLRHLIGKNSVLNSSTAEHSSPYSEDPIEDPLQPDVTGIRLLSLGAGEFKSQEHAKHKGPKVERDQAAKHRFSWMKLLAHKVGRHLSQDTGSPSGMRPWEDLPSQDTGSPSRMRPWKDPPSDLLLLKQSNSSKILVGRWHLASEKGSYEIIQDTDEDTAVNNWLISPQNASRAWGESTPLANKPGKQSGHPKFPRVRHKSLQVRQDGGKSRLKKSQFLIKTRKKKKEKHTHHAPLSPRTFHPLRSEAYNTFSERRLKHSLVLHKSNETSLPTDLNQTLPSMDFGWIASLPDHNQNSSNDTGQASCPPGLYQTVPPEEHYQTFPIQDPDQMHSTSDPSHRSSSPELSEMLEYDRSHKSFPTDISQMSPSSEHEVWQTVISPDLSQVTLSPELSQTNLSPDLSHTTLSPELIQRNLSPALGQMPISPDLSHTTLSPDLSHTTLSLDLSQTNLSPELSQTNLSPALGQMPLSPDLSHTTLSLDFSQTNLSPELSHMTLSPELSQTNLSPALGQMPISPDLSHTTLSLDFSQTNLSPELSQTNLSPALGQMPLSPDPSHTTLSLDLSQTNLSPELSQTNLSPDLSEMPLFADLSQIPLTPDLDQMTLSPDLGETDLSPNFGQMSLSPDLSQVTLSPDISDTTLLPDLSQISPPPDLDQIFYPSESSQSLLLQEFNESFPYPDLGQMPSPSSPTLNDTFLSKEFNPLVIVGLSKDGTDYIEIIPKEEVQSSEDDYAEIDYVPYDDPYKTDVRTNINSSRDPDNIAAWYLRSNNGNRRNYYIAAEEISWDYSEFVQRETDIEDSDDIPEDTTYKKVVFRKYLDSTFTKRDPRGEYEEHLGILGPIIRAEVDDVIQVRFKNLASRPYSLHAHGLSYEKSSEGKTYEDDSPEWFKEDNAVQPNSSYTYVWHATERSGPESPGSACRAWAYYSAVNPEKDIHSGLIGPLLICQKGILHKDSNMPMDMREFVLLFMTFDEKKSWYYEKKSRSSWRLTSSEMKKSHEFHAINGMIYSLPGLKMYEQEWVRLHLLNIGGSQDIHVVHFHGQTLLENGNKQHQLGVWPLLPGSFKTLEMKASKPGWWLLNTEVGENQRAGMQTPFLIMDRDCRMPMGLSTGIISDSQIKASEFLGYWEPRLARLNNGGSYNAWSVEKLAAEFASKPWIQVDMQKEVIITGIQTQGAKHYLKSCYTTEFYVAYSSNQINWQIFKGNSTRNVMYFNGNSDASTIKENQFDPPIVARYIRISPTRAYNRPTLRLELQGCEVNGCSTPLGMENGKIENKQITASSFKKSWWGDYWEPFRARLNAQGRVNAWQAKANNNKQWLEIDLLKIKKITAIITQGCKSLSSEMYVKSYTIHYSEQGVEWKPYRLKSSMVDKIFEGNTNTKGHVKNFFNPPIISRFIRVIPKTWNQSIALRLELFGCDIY

Regarding `CC1CNc2c(cccc2S(=O)(=O)N[C@@H](CCCNC(=N)N)C(=O)N2CC[C@@H](C)C[C@@H]2C(=O)O)C1` (some centres unmarked) [Argatroban, reference compound], in data set [1] (human, in vivo), the therapeutic plasma concentration result was “about 1 μg/ml”. In addition, in the data set on fresh whole blood (setting [5]), the MCF is 49.4 mm and the α angle worked out at 38.8 °.

Polyphosphate: the “effect on fibrin clot structure” value on fibrinogen is given as “thicker fibrin fibers that are more resistant to fibrinolysis”. Moreover, the “effect on activation of factor V by thrombin or factor Xa” value at factor V is listed as “accelerate the activation of factor V”. Also, the “effect on ability of antithrombin to inactivate thrombin” value at thrombin is reported as “neither enhanced nor blocked”. For the same molecule, on thrombin, the “effect on ability of heparin to accelerate inactivation of thrombin by antithrombin” value is on record as “did not enhance or block”. In addition, the “effect on plasma clot time” value in data set [2] is reported as “shortened, but did not completely normalize”; in data set [3] (4 patients with severe hemophilia B, polyP75 added in vitro), “decreased the plasma clot time”; in data set [4] (5 patients with severe hemophilia A, polyP75 added in vitro) it was “decreased the plasma clot time”. The “shortening of plasma clot time compared with factor replacement” value in [3] (FIX deficiency, polyP alone vs FIX restored to normal plasma concentration) is “greater degree than did restoring the missing clotting factor”; in [4] (FVIII deficiency, polyP alone vs FVIII restored to normal plasma concentration), “greater degree than did restoring the missing clotting factor”. The “procoagulant effect in combination with rFVIIa” value was “additive” in data set [3] (FIX-deficient plasma, all rFVIIa concentrations evaluated) and “additive” in data set [4] (FVIII-deficient plasma, all rFVIIa concentrations evaluated). Further, the “rFVIIa concentration giving similar shortening of plasma clot time” value in data set [3] (FIX-deficient plasma, polyP alone) is around 6 nM; in [4] (FVIII-deficient plasma, polyP alone) it was around 15 nM. In addition, the “clotting of patient plasma with polyP compared with pooled normal plasma” value in data set [3] (severe hemophilia B plasma in the presence of polyP) and in [4] (severe hemophilia A plasma in the presence of polyP) was “clotted more rapidly than did pooled normal plasma without polyP” throughout. In addition, in the data set with pooled normal plasma (both types of heparin, decreased slope of the dose-response curve, 67 μM polyP75), the “reversal of the effective dose of heparins” value is listed as “approximately 50%”. Moreover, the “shortening of clot time by polyP” value in the data set on pooled normal plasma (plasma with low molecular weight heparin (enoxaparin), all concentrations evaluated (20-100 μg/mL), 67 μM polyP75) is listed as “approximately 50%”; in the data set on pooled normal plasma (plasma with rivaroxaban, all concentrations tested (0.2-1 μg/mL), 67 μM polyP75), “approximately 80%”; with pooled normal plasma (plasma with unfractionated heparin, all concentrations evaluated (0.2-1 U/mL), 67 μM polyP75) it was “approximately 50%”. Further, the “argatroban level giving equivalent prolongation of clot time” value in the data set on pooled normal plasma (plasma with supratherapeutic argatroban (1-3 μg/ml) + polyP) is “less than 0.5 μg/ml”. Besides, the “effect on anticoagulant effect of drugs added in vitro to normal plasma” value in the data set with pooled normal plasma (unfractionated heparin, enoxaparin, argatroban, rivaroxaban, 67 μM polyP75) is “antagonized the anticoagulant effect of all four drugs”. In addition, the MCF in the data set on fresh whole blood (setting [6]) is on record as 62.2 mm; in the data set on fresh whole blood (setting [7]), 64.8 mm; in the data set on fresh whole blood (setting [8]), 64.0 mm; in the data set with fresh whole blood (setting [9]), 63.0 mm; in the data set with fresh whole blood (setting [10]) it was 63.6 mm; with fresh whole blood (setting [11]), 59.4 mm. Further, the MCF is listed as 59.8 mm in the data set with fresh whole blood (setting [12]) and 52.4 mm in the data set on fresh whole blood (setting [13]). The α angle in the data set with fresh whole blood (setting [6]) was determined as 69.0 °; with fresh whole blood (setting [7]), 71.0 °; with fresh whole blood (setting [8]), 70.0 °; in the data set with fresh whole blood (setting [9]) it was 69.6 °; with fresh whole blood (setting [10]), 67.4 °; in the data set with fresh whole blood (setting [11]), 56.4 °. For the same molecule, the α angle is listed as 60.4 ° with fresh whole blood (setting [12]) and 46.8 ° in the data set on fresh whole blood (setting [13]). Also, the “effect of polyP on CT, in words” value with fresh whole blood (blood containing argatroban) is listed as “shortened but did not entirely normalize”; in the data set with fresh whole blood (blood containing unfractionated heparin), “shortened, but did not completely normalize”. In the data set on fresh whole blood (blood containing enoxaparin), the “effect of polyP on thromboelastography parameters, in words” value is “normalized all parameters”. Besides, the “effect of polyP on thromboelastography curve, in words” value in the data set with fresh whole blood (blood containing rivaroxaban) is “complete reversal of anticoagulation”.

In the case of `O=C(NC[C@H]1CN(c2ccc(N3CCOCC3=O)cc2)C(=O)O1)c1ccc(Cl)s1` [Rivaroxaban, reference compound], the plasma half-life in data set [1] (in a patient) was 7 to 10 h. In the data set on fresh whole blood (setting [5]), the MCF is listed as 54.8 mm and the α angle turned out to be 47.6 °.
